Data published in article PMC6297231 (Nature Communications, 2018).
Like-named read-outs stand apart in the source and are kept apart here.

What was measured:
[1] = test system: NCI-H23 cells depleted of Bak; test: Caspase-3/7 activation after Bak siRNA; type: cell-based; details: Bak siRNA 72 h, then 6 h treatment
Method: NCI-H23 cells were trypsinized and resuspended in growth medium. SiRNA targeting Bak (cat#S1881, ThermoFisher Scientific) or non-targeting siRNA (cat#4390847, ThermoFisher Scientific), and Lipofectamine RNAiMAX (ThermoFisher Scientific) were mixed in OPTIMEM and incubated at room temperature for 20 min. Next, cell suspension was added to each siRNA master mix, dispensed into each well of a 96-well plate and incubated for 72 h.

[2] = test system: RPMI8226; test: Cell viability assay; type: cell-based; details: Homo sapiens, RPMI-8226, 24 h; RPMI8226 (MM); read-out: AZD5991 24h GI50
[3] = test system: AMO1; test: Cell viability assay; type: cell-based; details: Homo sapiens, 24 h; AMO1 (MM); read-out: AZD5991 24h GI50
[4] = test system: LP1; test: Cell viability assay; type: cell-based; details: Homo sapiens, LP-1, 24 h; LP1 (MM); read-out: AZD5991 24h GI50
[5] = test system: EOL1; test: Cell viability assay; type: cell-based; details: Homo sapiens, 24 h; EOL1 (AML); read-out: AZD5991 24h GI50
[6] = test system: THP-1; test: Cell viability assay; type: cell-based; details: Homo sapiens, 24 h; THP-1 (AML); read-out: AZD5991 24h GI50
[7] = test system: PL21; test: Cell viability assay; type: cell-based; details: PL-21, 24 h; PL21 (AML); read-out: AZD5991 24h GI50
[8] = test system: OCIM1; test: Cell viability assay; type: cell-based; details: OCI-M1, 24 h; OCIM1 (AML); read-out: AZD5991 24h GI50
[9] = test system: MAVER1; test: Cell viability assay; type: cell-based; details: Homo sapiens, 24 h; MAVER1 (NHL); read-out: AZD5991 24h GI50
[10] = test system: OCILY1; test: Cell viability assay; type: cell-based; details: Homo sapiens, OCI-Ly1, 24 h; OCILY1 (NHL); read-out: AZD5991 24h GI50
[11] = test system: H196; test: Cell viability assay; type: cell-based; details: NCI-H196, 24 h; H196 (Lung); read-out: AZD5991 24h GI50
[12] = test system: LUDLU1; test: Cell viability assay; type: cell-based; details: LUDLU-1, 24 h; LUDLU1 (Lung); read-out: AZD5991 24h GI50
[13] = test system: ZR751; test: Cell viability assay; type: cell-based; details: Homo sapiens, ZR-75-1, 24 h; ZR751 (Breast); read-out: AZD5991 24h GI50
[14] = test system: G361; test: Cell viability assay; type: cell-based; details: Homo sapiens, G-361, 24 h; G361 (Skin); read-out: AZD5991 24h GI50
[15] = test system: MALME3M; test: Cell viability assay; type: cell-based; details: Homo sapiens, Malme-3M, 24 h; MALME3M (Skin); read-out: AZD5991 24h GI50
[16] = test system: MEWO; test: Cell viability assay; type: cell-based; details: Homo sapiens, 24 h; MEWO (Skin); read-out: AZD5991 24h GI50
[17] = test system: GIST 430/654; test: Cell viability assay; type: cell-based; details: 24 h; GIST 430/654 (GI); read-out: AZD5991 24h GI50
[18] = test system: SNU1197; test: Cell viability assay; type: cell-based; details: 24 h; SNU1197 (GI); read-out: AZD5991 24h GI50
[19] = test system: SNU16; test: Cell viability assay; type: cell-based; details: Homo sapiens, SNU-16, 24 h; SNU16 (GI); read-out: AZD5991 24h GI50
[20] = test system: FaDu; test: Cell viability assay; type: cell-based; details: Homo sapiens, 24 h; FaDu (Others); read-out: AZD5991 24h GI50
[21] = test system: U2OS; test: Cell viability assay; type: cell-based; details: Homo sapiens, 24 h; U2OS (Others); read-out: AZD5991 24h GI50
[22] = test system: OVCAR3; test: Cell viability assay; type: cell-based; details: Homo sapiens, OVCAR-3, 24 h; OVCAR3 (Others); read-out: AZD5991 24h GI50
[23] = test system: SKOV3; test: Cell viability assay; type: cell-based; details: Homo sapiens, SK-OV-3, 24 h; SKOV3 (Others); read-out: AZD5991 24h GI50
[24] = test system: OCIAML5; test: Caspase-3/7 activation assay; type: cell-based; details: Homo sapiens, OCI-AML-5, 6 h
[25] = test system: OCILY7; test: cells; details: Homo sapiens, OCI-Ly7, 6 h, read-out: AZD5991 6h EC50
Method: Cells were plated at 3000 cells/well in 384-well white plates in corresponding cell growth media. […] Caspase-3/7 activation was subsequently determined using a Caspase-Glo 3/7 Reagent (Promega) and viability was assayed using the CellTiter-Glo Reagent (Promega) as described in manufacturer’s instructions. Dose–response curves for caspase-3/7 activation and viability were plotted and analyzed (including EC50 and GI50 determination) using GraphPad Prism. Percentage of caspase activation was calculated against the maximum caspase activation value (100%) obtained with a proprietary cell kill control.

[26] = test system: primary MM cells; details: 48 MM patients, 24 h, Annexin V by flow
[27] = test system: Eμ-Myc lymphoma cells stably expressing human Bcl-xL; test: Apoptosis induction in Eμ-Myc lymphoma cells; details: overexpression of Bcl-xL, 24 h
Text: (§1) The retroviral plasmids to express human Bcl-2 family members in murine Eμ-Myc lymphoma cells are MSCV-hMCL-1-GFP, MSCV-hBCL-2-GFP, MSCV-hBCL-XL-GFP, MSCV-hBFL-1/A1-GFP, and MSCV-hBCL-w-GFP. To produce viruses, constructs of interest were co-transfected into HEK293T cells with the plasmid encoding the packaging viruses (p-CL-AMPHO provided by Phillip Darcy from Peter MacCallum Cancer Center, Melbourne, Australia) using standard calcium phosphate transient transfection technique. The retroviruses were harvested, filtered and used to infect target cells following standard procedures.
(§2) Samples were then centrifuged, washed twice with PBS and analyzed by flow cytometry in a BD LSRFortessa. FACSDiva software was used for data collection and FlowJo software for data analysis.

[28] = test system: Eμ-Myc lymphoma cells stably expressing human Bfl-1/A1; test: Apoptosis induction in Eμ-Myc lymphoma cells; details: overexpression of Bfl-1/A1, 24 h
Text: as §1, §2

## Cc1c2c(nn1C)CSCc1cc(n(C)n1)CSc1cc(c3ccccc3c1)OCCCc1c(C(=O)O)n(C)c3c-2c(Cl)ccc13 (atropisomer, axis not shown; (Ra)) [(Ra)-7]
[1]
  caspase-3/7 activation and cell death: confers resistance
[2]
  GI50: 55 nM
[3]
  GI50: 129 nM
[4]
  GI50: 258 nM
[5]
  GI50: 12 nM
[6]
  GI50: 76 nM
[7]
  GI50: 403 nM
[8]
  GI50: 27700 nM
[9]
  GI50: 530 nM
[10]
  GI50: 561 nM
[11]
  GI50: > 30000 nM
[12]
  GI50: 991 nM
[13]
  GI50: 21200 nM
[14]
  GI50: 404 nM
[15]
  GI50: 19500 nM
[16]
  GI50: 7680 nM
[17]
  GI50: 1620 nM
[18]
  GI50: 27300 nM
[19]
  GI50: 139 nM
[20]
  GI50: 8870 nM
[21]
  GI50: 20600 nM
[22]
  GI50: > 30000 nM
[23]
  GI50: 144 nM
[24]; read-out: 6h caspase EC50, OCIAML5, single agent
  EC50: > 333 nM
[24]; read-out: AZD5991 6h EC50, OCIAML5 (AML), caspase 3/7 activation
  EC50: > 30000 nM
[25]
  EC50: 36 nM
[26]
  MM primary samples with EC50 values below 100 nM: 71%
[27]
  apoptosis-inducing activity: blocked
[28]
  apoptosis-inducing activity: blocked
